From paper PMC8280112, “Substrate reduction therapy for Krabbe disease and metachromatic leukodystrophy using a novel ceramide galactosyltransferase inhibitor” (Scientific Reports, 2021)

Experiments:
[1] = biological target: T1, UGT1A (Homo sapiens, UniProt P22309); experiment: UDP glucuronosyltransferase assay (Eurofins Panlabs); format: biochemical
T1 construct: purchased Eurofins Panlabs Taiwan, Ltd. ITEM 196000
T1 sequence (P22309 26-533): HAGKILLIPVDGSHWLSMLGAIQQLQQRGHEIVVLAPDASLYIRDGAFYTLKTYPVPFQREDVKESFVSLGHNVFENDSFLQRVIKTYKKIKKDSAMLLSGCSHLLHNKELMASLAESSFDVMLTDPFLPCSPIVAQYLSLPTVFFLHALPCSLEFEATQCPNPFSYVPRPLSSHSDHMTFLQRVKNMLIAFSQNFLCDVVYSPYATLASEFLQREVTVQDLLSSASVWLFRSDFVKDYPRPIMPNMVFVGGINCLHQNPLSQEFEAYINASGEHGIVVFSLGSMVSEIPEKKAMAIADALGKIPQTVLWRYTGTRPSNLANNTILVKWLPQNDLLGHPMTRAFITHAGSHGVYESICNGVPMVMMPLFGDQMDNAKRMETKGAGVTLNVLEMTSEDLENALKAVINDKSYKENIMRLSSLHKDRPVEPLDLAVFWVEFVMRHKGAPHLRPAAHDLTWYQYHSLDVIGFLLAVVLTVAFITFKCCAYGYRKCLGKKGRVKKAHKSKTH
Procedure: UGT1A activity was evaluated at Eurofins Panlabs Taiwan, Ltd. ITEM 196000.

[2] = system: GalCer and psychosine levels; experiment: Twitcher mouse brain psychosine and galactosylceramide analysis; format: in vivo; conditions: Twitcher mice treated PND3-PND28
Procedure: Mice heterozygous for the Twitcher mutation on the congenic C57BL/6 background were originally purchased from The Jackson Laboratories (stock #000845). Homozygous GALC −/− animals were generated from heterozygous mating. Genotypes were determined on PND1 by PCR as previously described[43],[44]. Animals that died prior to weaning on PND28 were excluded from the study unless otherwise noted. Animals were euthanized when they became moribund as defined by any of the following: losing 25% of their maximal body weight, ataxia severe enough to impair ability to eat or drink, or lack of response to tactile stimulus. Animals used for tissue collection were euthanized by anesthetic overdose and perfused transcardially with PBS for three min. Animals for lifespan analysis were euthanized using CO2 compressed gas delivered at 10–30% chamber volume displacement per min. […] Tissues were harvested and flash frozen in liquid nitrogen.
Galactosylsphingosine (psychosine), and galactosylceramide were measured by tandem mass spectrometry as previously described. Briefly, tissue samples were homogenized in 0.04 M citric acid. Internal controls in 200 µL methanol were added to 50 µL of each sample. […] Galactosylsphingosine and galactosylceramide were detected using MRM on an AB SCIEX 4000QTRAP tandem mass spectrometer using ESI in the positive ion mode. […]

[3] = system: sulfatide and lysosulfatide levels; experiment: ARSA knockout (MLD) mouse brain sulfatide and lysosulfatide analysis; format: in vivo; conditions: MLD (ARSA knockout) mice, IP three times per week
Procedure: ARSA mice were obtained from Volkmar Gieselmann, University of Bonn. ARSA −/− mice were generated from heterozygous pairing and confirmed by PCR genotyping. […] Animals were euthanized by exsanguination under deep anesthesia and brain and sciatic nerve removed, rinsed in cold saline, dried, and snap frozen for lipid quantification.
Previously diluted brain homogenate was serially diluted (10 µL into 90 µL and then 20 µL into 80 µL) in ACN/H2O (v/v 1:1) before being added to 300 µL ACN with IS (N-C18:0-CD3-sulfatide, Matreya). The mixture was vortexed for 10 min, centrifuged at 5800 rpm for 10 min, and then 3 µL of supernatant was injected for LC–MS/MS analysis. Sulfatides were separated on an ACE 5 C18 (2.1 × 50 mm, 5 µm) column (0.6 mL/min flow rate) at 60 °C using mobile phase A (H2O-5 mM NH4OAc) and mobile phase B (ACN). Non-hydroxy-sulfatide and 2-hydroxy-sulfatide were detected using MRM on a UPLC-MS/MS-22 (Triple Quad 6500) in positive ESI mode. Total sulfatides (Matreya) were used as reference standards. The non-hydroxy-sulfatide or 2-hydroxy-sulfatide species identified in the reference standards were each summed and normalized relative to the vehicle treated animals.
Sulfatides were quantified using the methods described above. For lysosulfatide, 30 µL of brain homogenates were added to 200 µL ACN with IS (N-acetylsulfatide, Matreya), vortexed for 10 min, and centrifuged at 5800 rpm for 10 min. 3 µL of supernatant was injected for LC–MS/MS analysis. UPLC–MS/MS methods were the same used for sulfatides described above except lysosulfatide (Matreya) was used as a reference standard.

[4] = system: wild-type mice; experiment: Low dose treatment of wild-type mice PND3 to PND70: vacuolation; format: in vivo, mouse; conditions: PND3 to PND70, 0.15 mg/kg

For `C[C@H]1N(c2ccc(Br)cc2)C(=O)N(c2ccc(Br)cc2)C1(O)c1cccc(OC(F)(F)F)c1` (stereo partly shown) [S202], the IC50 [1] was greater than 30 µM, the “non-hydroxy-GalCer in the brain” value [2] was “dose-dependent reduction” and the “psychosine levels in the brain” value [2] was “reduced to the same extent as the non-hydroxy-GalCer”. For the same compound, the 2-hydroxy-sulfatides in brain ([3]; higher doses) was “reduced”, the lysosulfatide in brain ([3]; lower doses) was “reduction” and the non-hydroxy-sulfatide in brain ([3]; lower doses) was “reduction”. The “vacuolation in brain, spine and sciatic nerve” value [4] was “vacuolation was observed in a similar pattern, but was much less severe”.
